Data reported in patent publication US20080292619A1, “Pharmaceutical Composition Containing Meltrin Antagonist” (MOCHIDA PHARMACEUTICAL CO., LTD., priority 2004, published 2008).
In the oligonucleotide strings, read from the 5' end, every base follows the letter of its sugar. An asterisk marks phosphorothioate; unmarked linkages are phosphodiester. Other units and linkages are bracketed, terminal groups are in braces. A string of capitals states the bases alone. d = 2'-deoxy (DNA)

Columns and labels:
human preadipocyte = test: Adipocyte proliferation and differentiation, neutral fat accumulation (Adipo Red); assay type: cell-based
Experimental: The differentiation medium was prepared by adding supplement kit PGM SingleQuots, #PT-9500, Lot.08101163 (Sanko Junyaku Co., Ltd.) to 100 mL of growth medium. 50 μL of the supernatant was removed from the 96 well plate prepared in Example 12, and 50 μL of the siRNA or the antisense oligonucleotide prepared in the differentiation medium was added, and incubation was conducted in a CO2 incubator for 5 days to 15 days.
The amount of neutral fat accumulated in the adipocyte was determined by fluorometry using Adipo Red stain.
After taking the 96 well plate out of the CO2 incubator, the plate was allowed to stand until it cooled to room temperature. The plate was centrifuged at 300 g (1200 rpm) for 10 minutes at room temperature to remove the medium. Next, the plate was gently washed with 200 μL/well of PBS (Sigma), and 200 μL/well of PBS was added to the well.
Next, 5 μL/well of Adipo Red Assay Reagent (Adipo Red, Cat. #PT-7009, Lot.3F0497, A Cambrex Company) was added, and the plate was allowed to stand at room temperature for at least 10 minutes to thereby stain the neutral fat that had accumulated in the adipocyte. The fluorescence intensity was measured in a fluorometer at an excitation wavelength of 485 nm and an emission wavelength of 535 nm to thereby determine the fat accumulation.
(§1) According to the method of Example 15, M82463 was added to the human preadipocyte incubation system at a concentration of 0.3 to 10 μg/mL so that the final concentration of the DMSO was 0.2%. As a control, a group having only the DMSO added to a final concentration of 0.2% was used.
After preparation of the antibody to the concentration of 0.100 mg/mL with physiological saline, 9 volumes of adipocyte differentiation medium was added to 1 volume of the antibody solution, and the solution was sterilized by filtering through a filter having a diameter of 0.22 μm (MILLEX-GV 0.22 μm Filter unit, 3slgv013SL, Lot. R2NN83622, MILLIPORE). […]

meltrin α = target: T1, meltrin α (Homo sapiens, UniProt O43184, E208G/T209S); test: Inhibition of protease activity of meltrin α (rhIGF-BP3 cleavage, western blotting); assay type: biochemical; details: low molecular weight compound 10 μg/mL; rhIGF-BP3 band
T1 construct: had been converted to mature meltrin α having the prodomain deleted (molecular weight 68 kDa); made in house; host or cells: COS-1
T1 sequence (O43184 208-738 isoform O43184-2 E208G/T209S): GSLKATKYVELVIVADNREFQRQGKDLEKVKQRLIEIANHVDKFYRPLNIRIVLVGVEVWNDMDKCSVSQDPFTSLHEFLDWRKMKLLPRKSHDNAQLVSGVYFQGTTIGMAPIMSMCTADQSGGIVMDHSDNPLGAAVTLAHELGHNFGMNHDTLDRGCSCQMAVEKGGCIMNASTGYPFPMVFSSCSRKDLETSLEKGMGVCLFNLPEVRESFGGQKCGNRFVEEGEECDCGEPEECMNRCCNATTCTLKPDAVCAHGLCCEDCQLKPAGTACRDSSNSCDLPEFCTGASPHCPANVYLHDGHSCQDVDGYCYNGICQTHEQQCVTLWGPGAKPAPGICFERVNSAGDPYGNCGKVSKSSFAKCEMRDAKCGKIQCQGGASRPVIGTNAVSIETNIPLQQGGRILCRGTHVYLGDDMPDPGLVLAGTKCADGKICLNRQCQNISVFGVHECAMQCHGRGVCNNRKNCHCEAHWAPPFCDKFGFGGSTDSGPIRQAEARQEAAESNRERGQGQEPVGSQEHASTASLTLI
Experimental: Thrombin (Amersham Biosciences) was added to the purified meltrin α-STFLAG prepared in Example 5, and mixture was kept at 25° C. for 15 hours. When the solution after the reaction was examined by repeating the procedure of Example 5, the human meltrin α containing the prodomain (molecular weight 92 kDa) had been converted to mature meltrin α having the prodomain deleted (molecular weight 68 kDa). For measuring the enzymatic activity of the meltrin α, the solution after the prodomain cleavage with thrombin followed by inactivation of the thrombin by 10 mM APMSF (Wako Pure Chemical Industries, Ltd.) was used. The disappearance of the thrombin activity was confirmed by using the synthetic substrate for the thrombin on the reaction solution. […]
The anti-human meltrin α antibodies produced in Examples 6 and 7 were evaluated on their activity for inhibiting protease activity of meltrin α by using the protease activity assay system of Example 9. […] After the reaction, the reaction solution was electrophoresed by SDS-PAGE, and the rhIGF-BP3 was detected by western blotting.
According to the method of Example 9, activity of the low molecular weight compound for inhibiting protease activity of the meltrin α was assayed as described below. […] After the reaction, the reaction solution was electrophoresed by SDS-PAGE, and the rhIGF-BP3 was detected by western blotting.

adipocyte = test: Toxicity for the adipocyte (WST1 assay); assay type: cell-based, human; details: at the concentration used in the assay (0.3 to 10 μg/mL)
Experimental: Toxicity of the test substance to the adipocyte was examined by WST1 assay. More specifically, Premix WST-1 Cell Proliferation Assay System (Takara Shuzo Co., Ltd.) was added at 10 μL/well, and after incubating at 37° C. for 60 minutes in a CO2 incubator, absorbance (450 nm-650 nm) was measured to examine influence on the adipocyte.
as §1

meltrin α mRNA = test: Quantitative determination of human meltrin α expression in human preadipocyte (real time PCR); assay type: cell-based; details: antisense DNA transfected human preadipocyte; sense oligo DNA group = 100%
Experimental: First, the human preadipocyte for use in the assay (human preadipocytes-sq donor10547, POIETICS #PT-5001, Lot.3F0242, Sanko Junyaku Co., Ltd.) which had been adjusted to a cell concentration of 1×10^5 cells/mL was added to a 96 well culture plate at 1×10^2 to 1×10^4 cells/well/100 μL, and cultured overnight. In the meanwhile, the culture medium in which preadipocytes had been suspended at 1×10^5 cells/mL was added to a 6 well plate at 1600 μL/well, and growth medium was also added to the plate at 400 μL/well, and the cells were cultured overnight. 1 μg to 50 μg of synthetic oligo DNA was added to serum free adipocyte growth medium or serum. free D-MEM, and after adding 3 μL of FuGENE6 per 1 μg of oligo DNA, the mediums were allowed to stand at room temperature for 15 to 45 minutes. From the 6 well plate described above, 400 μL/well of the medium was removed and 400 μL/well of the culture medium containing the oligo DNA was added, and the plate was incubated at 37° C. for 18 hours in the presence of 5% CO2 to evaluate the level of expression of meltrin in Example 15. […]
After removing PBS from the plate, 0.5 mL/well of Trizol Reagent (Invitrogen) was added to the plate. […] After drying, the precipitate was dissolved in water not containing RNase, and absorbance at a wavelength of 260 nm was measured to determine the RNA concentration (1OD=40 μg/mL). […]

Oc1c(C(Nc2ccccn2)c2ccccc2)ccc2cccnc12 (centres unmarked) [M82463, 7-[phenyl(pyridine-2-ylamino)methyl]quinoline-8-ol]
adipocyte proliferation and differentiation (human preadipocyte; 0.3 to 10 μg/mL, DMSO 0.2%): suppressed the adipocyte proliferation and differentiation in a dose dependent manner | activity for inhibiting protease activity of meltrin α (meltrin α): suppressed the disappearance of the rhIGF-BP3 | cytotoxicity (adipocyte): no cytotoxicity was found

HS0307A: phosphorothioate antisense sequence CACGGGCAGCGGGCGCGCTGCCAT near the 5′ end of the coding region of human meltrin α (antisense dC*dA*dC*dG*dG*dG*dC*dA*dG*dC*dG*dG*dG*dC*dG*dC*dG*dC*dT*dG*dC*dC*dA*dT)
accumulation of the neutral fat in the preadipocyte (human preadipocyte; 5 days after differentiation stimulation, compared to the sense sequence group): suppressed to a greater degree | suppression of level of expression of the meltrin α (meltrin α mRNA): about 70%
